For 16 compounds, IC50 results are on record in patent publication US20090306133A1, “New Acetyl Coenzyme A Carboxylase (ACC) Inhibitors And Uses In Treatments Of Obesity And Diabetes Mellitus - 087” (ASTRAZENECA AB, priority 2007, published 2009).

Molecules are shown by their SMILES.

Assay [1] has as its target Human recombinant Acetyl-CoA Carboxylase 2 (ACC2) (Homo sapiens, UniProt O00763). In words: Assay X: ACC2 inhibition, inorganic phosphate (malachite green). It counts as biochemical. The following applies: Assay X: 37° C., 1.5 h, 5 min pre-incubation. The method, then:
(§1) Human recombinant Acetyl-CoA Carboxylase 1 and Acetyl-CoA Carboxylase 2 (ACC1 and ACC2) were assayed by determining the amount of inorganic phosphate (Pi) generated. Pre-incubation of 15 μL enzyme together with 0.75 μL DMSO+/−compound for 5 min was done before the reaction was initiated by the addition of 10 μL substrate. […] After 1.5 h the reaction was stopped by addition of 74 μL of water followed by extensive mixing, split and transfer of 2×40 μL to a read-plate encompassing 30 μL distilled H2O per well (n=2→n=4). Colour reaction was initiated by addition of 30 μL malachite green reagent per well and allowed 15 min before absorbance reading of the plates at 660 nm. The malachite green reagent was prepared by mixing 16.4 mL ammonium molybdate solution (7.5%), 1.64 mL Tween (11%) with 82 mL Malachite Green/H2SO4-solution (0.7 g Malachite Green to 1000 mL of 10% (v/v) H2SO4).
(§2) All compounds were tested in triplicate at 10 different concentrations. Control compound (0, 50 and 100% effect) was included on each plate. […] Curve fitting was done using the following equation: y=(A+((B−A)/(1+((x/C)̂D)))) where A and B represents the curve bottom (% inhibition) and the total amplitude (% inhibition), respectively, whereas C and D are the apparent IC50 and curve slope, respectively.

In assay [2] the target is Human recombinant Acetyl-CoA Carboxylase 1 (ACC1) (Homo sapiens, UniProt Q13085). Briefly: Assay X: ACC1 inhibition, inorganic phosphate (malachite green). The following applies: Assay X: 37° C., 1.5 h, 5 min pre-incubation. It is filed as biochemical. Here is the method:
as §1, §2

Human recombinant Acetyl-CoA Carboxylase 2 (ACC2), sequence (O00763 whole entry): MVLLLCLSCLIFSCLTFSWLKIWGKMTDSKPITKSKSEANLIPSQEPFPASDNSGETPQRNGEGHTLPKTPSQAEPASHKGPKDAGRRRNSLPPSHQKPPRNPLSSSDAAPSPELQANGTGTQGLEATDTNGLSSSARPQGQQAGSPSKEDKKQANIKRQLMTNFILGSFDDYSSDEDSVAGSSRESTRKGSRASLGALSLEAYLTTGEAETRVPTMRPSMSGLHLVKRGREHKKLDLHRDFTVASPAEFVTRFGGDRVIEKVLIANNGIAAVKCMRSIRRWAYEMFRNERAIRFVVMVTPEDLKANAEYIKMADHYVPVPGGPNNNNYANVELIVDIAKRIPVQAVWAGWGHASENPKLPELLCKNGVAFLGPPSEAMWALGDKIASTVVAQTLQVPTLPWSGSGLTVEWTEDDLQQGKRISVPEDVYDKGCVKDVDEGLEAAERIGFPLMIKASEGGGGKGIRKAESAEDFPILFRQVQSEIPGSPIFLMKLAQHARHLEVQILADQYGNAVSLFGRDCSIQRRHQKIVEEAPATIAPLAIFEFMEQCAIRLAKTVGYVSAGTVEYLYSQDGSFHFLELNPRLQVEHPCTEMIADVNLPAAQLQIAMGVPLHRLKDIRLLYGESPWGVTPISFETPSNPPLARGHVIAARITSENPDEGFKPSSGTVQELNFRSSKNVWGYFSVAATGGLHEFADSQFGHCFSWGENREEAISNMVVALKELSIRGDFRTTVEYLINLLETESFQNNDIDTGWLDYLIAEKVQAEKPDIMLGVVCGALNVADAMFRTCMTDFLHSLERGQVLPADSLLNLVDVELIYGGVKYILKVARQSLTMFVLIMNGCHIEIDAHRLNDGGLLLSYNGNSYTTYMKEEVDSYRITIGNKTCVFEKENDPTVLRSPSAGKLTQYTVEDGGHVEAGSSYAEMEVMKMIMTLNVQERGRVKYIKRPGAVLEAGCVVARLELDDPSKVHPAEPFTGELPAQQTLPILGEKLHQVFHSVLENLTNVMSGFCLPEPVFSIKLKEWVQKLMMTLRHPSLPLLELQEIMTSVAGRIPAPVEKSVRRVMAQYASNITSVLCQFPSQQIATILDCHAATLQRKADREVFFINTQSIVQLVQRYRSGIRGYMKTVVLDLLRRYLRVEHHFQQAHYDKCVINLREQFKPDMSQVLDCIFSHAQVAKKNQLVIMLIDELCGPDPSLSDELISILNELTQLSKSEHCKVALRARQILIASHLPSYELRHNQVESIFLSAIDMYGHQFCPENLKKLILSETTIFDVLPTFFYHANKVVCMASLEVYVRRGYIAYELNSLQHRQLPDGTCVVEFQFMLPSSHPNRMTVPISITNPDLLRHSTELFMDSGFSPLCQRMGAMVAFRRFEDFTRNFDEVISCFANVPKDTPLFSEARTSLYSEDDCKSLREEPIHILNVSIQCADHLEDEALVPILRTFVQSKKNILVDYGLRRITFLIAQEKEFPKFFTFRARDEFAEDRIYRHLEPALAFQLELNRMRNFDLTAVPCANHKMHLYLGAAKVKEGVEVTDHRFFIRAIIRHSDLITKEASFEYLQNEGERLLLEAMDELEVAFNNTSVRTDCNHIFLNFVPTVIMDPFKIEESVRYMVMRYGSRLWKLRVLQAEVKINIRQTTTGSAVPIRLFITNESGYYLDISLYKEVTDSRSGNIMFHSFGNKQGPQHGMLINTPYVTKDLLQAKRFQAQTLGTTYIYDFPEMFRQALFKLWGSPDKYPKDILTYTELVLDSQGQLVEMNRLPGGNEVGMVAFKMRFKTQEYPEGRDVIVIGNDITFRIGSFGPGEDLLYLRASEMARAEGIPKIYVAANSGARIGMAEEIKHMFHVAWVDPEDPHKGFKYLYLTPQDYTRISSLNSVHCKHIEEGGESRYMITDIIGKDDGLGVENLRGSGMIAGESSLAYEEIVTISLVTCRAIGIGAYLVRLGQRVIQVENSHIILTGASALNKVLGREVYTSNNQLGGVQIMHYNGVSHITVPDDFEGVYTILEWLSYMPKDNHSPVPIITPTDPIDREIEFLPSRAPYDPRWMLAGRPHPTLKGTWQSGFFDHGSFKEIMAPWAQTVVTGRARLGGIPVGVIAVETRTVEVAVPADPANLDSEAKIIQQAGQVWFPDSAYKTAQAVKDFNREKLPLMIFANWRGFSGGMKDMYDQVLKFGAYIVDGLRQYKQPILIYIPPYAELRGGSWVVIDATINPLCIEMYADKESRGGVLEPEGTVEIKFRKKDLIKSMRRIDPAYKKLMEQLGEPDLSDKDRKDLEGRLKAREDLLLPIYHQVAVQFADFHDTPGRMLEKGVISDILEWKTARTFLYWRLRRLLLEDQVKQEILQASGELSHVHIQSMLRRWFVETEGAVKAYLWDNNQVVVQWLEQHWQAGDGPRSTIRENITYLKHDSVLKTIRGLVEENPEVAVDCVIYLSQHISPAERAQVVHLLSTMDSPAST

For `CC(C)(C)OC(=O)NC[C@H]1CC[C@H](CNC(=O)c2cc(N3CCC(CC(O)CN4CCCC4)CC3)nc3ccccc23)CC1` (relative stereo) [Example 206, tert-butyl [(trans-4-{[({2-[4-(2-hydroxy-3-pyrrolidin-1-ylpropyl)piperidin-1-yl]quinolin-4-yl}carbonyl)amino]methyl}cyclohexyl)methyl]carbamate], the figures for the half-maximal inhibitory concentration (IC50) in assay [1] and in assay [2] were 130 nM and 973 nM, respectively.

Take `CC(C)(C)OC(=O)NC[C@H]1CC[C@H](CNC(=O)c2cc(N3CCC(CC(O)CN4CCOCC4)CC3)nc3ccccc23)CC1` (relative stereo) [Example 207, tert-Butyl[(trans-4-{[({2-[4-(2-hydroxy-3-morpholin-4-ylpropyl)piperidin-1-yl]quinolin-4-yl}-carbonyl)amino]methyl}cyclohexyl)methyl]-carbamate]: the IC50 in assay [1] came to 130 nM; in assay [2], 1040 nM.

Turning to `CC(C)(C)OC(=O)NC[C@H]1CC[C@H](CNC(=O)c2cc(N3CCC(CCN4CCC(O)C4)CC3)nc3ccccc23)CC1` (relative stereo) [Example 230, tert-Butyl{[trans-4-({[(2-{4-[2-(3-hydroxypyrrolidin-1-yl)ethyl]piperidin-1-yl}quinolin-4-yl)carbonyl]amino}-methyl)cyclohexyl]-methyl}carbamate], the IC50 in assay [1] amounted to 160 nM; in assay [2], 1330 nM.

Take `CC(C)(C)OC(=O)NC[C@H]1CC[C@H](CNC(=O)c2cc(N3CCC(CC(O)CN4CCOCC4)CC3)nc3ccccc23)CC1` (single isomer, unassigned) [Example 208, (R) or (S) tert-Butyl [(trans-4-{[({2-[4-(2-hydroxy-3-morpholin-4-ylpropyl)piperidin-1-yl]quinolin-4-yl}-carbonyl)amino]methyl}cyclohexyl)methyl]-carbamate]: the IC50 came to 170 nM in assay [1] and 1100 nM in assay [2].

Turning to `CC(C)(C)OC(=O)NC[C@H]1CC[C@H](CNC(=O)c2cc(N3CCC(CC(O)CN4CCCC4)CC3)nc3ccccc23)CC1` (single isomer, unassigned) [Example 209, (S) or (R) tert-Butyl [(trans-4-{[({2-[4-(2-hydroxy-3-pyrrolidin-1-ylpropyl)-piperidin-1-yl]quinolin-4-yl}carbonyl)amino]-methyl}cyclohexyl)methyl]carbamate], the half-maximal inhibitory concentration (IC50) in assay [1] was 110 nM; in assay [2], 780 nM.

Take `CC(C#N)OC(=O)NC[C@H]1CC[C@H](CNC(=O)c2cc(-c3ccc(N4CCN(C)CC4)nc3)nc3ccccc23)CC1` (stereo partly drawn) [Example 121, 1-Cyanoethyl[(trans-4-{[({2-[6-(4-methylpiperazin-1-yl)pyridin-3-yl]quinolin-4-yl}carbonyl)amino]methyl}cyclohexyl)methyl]carbamate]: the IC50 in assay [1] was 1370 nM; in assay [2], 4770 nM.

As to `CC(=O)NCCOC(=O)NC[C@H]1CC[C@H](CNC(=O)c2cc(-c3ccc(N4CCN(C)CC4)nc3)nc3ccccc23)CC1` [Example 122, 2-Acetamidoethyl[(trans-4-{[({2-[6-(4-methylpiperazin-1-yl)pyridin-3-yl]quinolin-4-yl}carbonyl)amino]methyl}cyclohexyl)methyl]carbamate], the IC50 in assay [1] is 1860 nM; in assay [2], 8130 nM.

Regarding `CN1CCN(c2ccc(-c3cc(C(=O)NC[C@H]4CC[C@H](CNC(=O)OCC5CCOC5)CC4)c4ccccc4n3)cn2)CC1` (stereo partly drawn) [Example 126, Tetrahydrofuran-3-ylmethyl[(trans-4-{[({2-[6-(4-methylpiperazin-1-yl)pyridin-3-yl]quinolin-4-yl}carbonyl)amino]methyl}cyclohexyl)methyl]carbamate], the half-maximal inhibitory concentration (IC50) in assay [1] was 420 nM; in assay [2] it was 1670 nM.

For the compound `CN1CCN(c2ccc(-c3cc(C(=O)NC[C@H]4CC[C@H](CNC(=O)OCC5CCCO5)CC4)c4ccccc4n3)cn2)CC1` (stereo partly drawn) [Example 127, Tetrahydrofuran-2-ylmethyl[(trans-4-{[({2-[6-(4-methylpiperazin-1-yl)pyridin-3-yl]quinolin-4-yl}carbonyl)amino]methyl}cyclohexyl)methyl]carbamate], the IC50 in assay [1] was 880 nM; in assay [2], 3780 nM.

`CN1CCN(c2ccc(-c3cc(C(=O)NC[C@H]4CC[C@H](CNC(=O)OCCn5cccn5)CC4)c4ccccc4n3)cn2)CC1` [Example 129, 2-(1H-Pyrazol-1-yl)ethyl-[(trans-4-{[({2-[6-(4-methylpiperazin-1-yl)pyridin-3-yl]quinolin-4-yl}carbonyl)amino]methyl}cyclohexyl)methyl]carbamate]: the IC50 in assay [1] turned out to be 2440 nM; in assay [2], 7940 nM.

`CN1CCN(c2ccc(-c3cc(C(=O)NC[C@H]4CC[C@H](CNC(=O)OCc5nccs5)CC4)c4ccccc4n3)cn2)CC1` [Example 130, 1,3-Thiazol-2-ylmethyl-[(trans-4-{[({2-[6-(4-methylpiperazin-1-yl)pyridin-3-yl]quinolin-4-yl}carbonyl)amino]methyl}cyclohexyl)methyl]carbamate]: the half-inhibitory concentration (IC50) in assay [1] worked out at 440 nM; in assay [2], 1950 nM.

As to `CN1CCN(c2ccc(-c3cc(C(=O)NC[C@H]4CC[C@H](CNC(=O)OCc5cnccn5)CC4)c4ccccc4n3)cn2)CC1` [Example 131, Pyrazin-2-ylmethyl-[(trans-4-{[({2-[6-(4-methylpiperazin-1-yl)pyridin-3-yl]quinolin-4-yl}carbonyl)amino]methyl}cyclohexyl)methyl]carbamate], the half-inhibitory concentration (IC50) in assay [1] came out at 1590 nM; in assay [2], 5250 nM.

Regarding `CN1CCN(c2ccc(-c3cc(C(=O)NC[C@H]4CC[C@H](CNC(=O)OCCC#N)CC4)c4ccccc4n3)cn2)CC1` [Example 132, 2-Cyanoethyl[(trans-4-{[({2-[6-(4-methylpiperazin-1-yl)pyridin-3-yl]quinolin-4-yl}carbonyl)amino]methyl}cyclohexyl)methyl]carbamate], the figures for the IC50 in assay [1] and in assay [2] were 1860 nM and 5760 nM, respectively.

Take `CC(C)(C)OC(=O)NC[C@H]1CC[C@H](CNC(=O)c2cc(-c3ccc(NCCCO)nc3)nc3ccccc23)CC1` [Example 150, tert-Butyl{[trans-4-({[(2-{6-[(3-hydroxypropyl)amino]pyridin-3-yl}quinolin-4-yl)carbonyl]amino}-methyl)cyclohexyl]methyl}carbamate]: the values for the IC50 in assay [1] and in assay [2] were 130 nM and 350 nM, respectively.

As to `CC(C)(C)OC(=O)NC[C@H]1CC[C@H](CNC(=O)c2cc(-c3ccc(N4CCC(O)CC4)nc3)nc3ccccc23)CC1` [Example 151, tert-Butyl[(trans-4-{[({2-[6-(4-hydroxypiperidin-1-yl)pyridin-3-yl]-quinolin-4-yl}-carbonyl)amino]methyl}cyclohexyl)methyl]carbamate], the values for the half-maximal inhibitory concentration (IC50) in assay [1] and in assay [2] were 160 nM and 610 nM, respectively.

As to `CC(C)(C)OC(=O)NC[C@H]1CC[C@H](CNC(=O)c2cc(-c3ccc(N(CCO)CCO)nc3)nc3ccccc23)CC1` [Example 152, tert-Butyl{[trans-4-({[(2-{6-[bis(2-hydroxyethyl)amino]pyridin-3-yl}quinolin-4-yl)carbonyl]amino}-methyl)cyclohexyl]methyl}carbamate], the half-maximal inhibitory concentration (IC50) in assay [1] stood at 170 nM; in assay [2], 480 nM.
